Results taken from PubChem BioAssay AID1949 (Southern Research Institute, 2009).
In brackets after ≈: the same amount, converted by molar mass. Inconclusive results are not listed. Activity calls are given as the source filed them. No rule for the calls is given here.

Tested on: M. tuberculosis H37Rv growth inhibition
Experiment: Mycobacterium tuberculosis H37Rv growth inhibition, cell based, confirmatory dose response (AID 1949);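 also: bacteria grown 7 days with compound before Alamar blue readout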

Compound	IC50
O=C(CCN1CCc2ccccc2C1)c1ccc2c(c1)OCCO2	14.9 µg/mL (≈ 46 µM)
Cc1nn2c3ccc(N)cc3nc2c2ccccc12	17.5 µg/mL (≈ 70.6 µM)
CC(=O)c1ccc(COC(=O)c2ccc([N+](=O)[O-])cc2Cl)cc1	40.7 µg/mL (≈ 122 µM)
COc1cc(OC)cc(C(=O)NC(=S)N2CCCCCC2)c1	2.83 µg/mL (≈ 8.78 µM)
O=[N+]([O-])/C=C/c1ccc(-c2ccccc2C(F)(F)F)o1	4.61 µg/mL (≈ 16.3 µM)
Cc1cc(C(=O)NCC23CC4CC(CC(C4)C2)C3)ccc1[N+](=O)[O-]	0.42 µg/mL (≈ 1.28 µM)
COC(=O)CSc1nc(N2CCCCC2)c2c(c1C#N)CCCC2	0.17 µg/mL (≈ 0.492 µM)
Cc1ccc(N2CCN(CCNC(=S)Nc3cccc(C)c3C)CC2)c(Cl)c1	8.3 µg/mL (≈ 19.9 µM)
CCC(C)NCCCOc1ccc(Cl)c2ccccc12 (stereo unspecified)	2.06 µg/mL (≈ 7.06 µM)
CC(=O)c1ccc(NC(=S)Nc2ccc(Br)c(Cl)c2)cc1	2.14 µg/mL (≈ 5.58 µM)
N#Cc1ccc(Sc2nc3ccccc3o2)c([N+](=O)[O-])c1	> 50 µg/mL (inactive)
Cc1cccc(OCC(O)CN2CCN(C(c3ccccc3)c3ccccc3)CC2)c1C (stereo unspecified)	2.94 µg/mL (≈ 6.83 µM)
COC(=O)c1ccc(COC(=O)c2ccccc2Cl)cc1	1.69 µg/mL (≈ 5.55 µM)
COC(=O)c1ccc(N2C(=O)CC(N(CCc3ccccc3)C(=S)Nc3ccccc3)C2=O)cc1 (stereo unspecified)	2.77 µg/mL (≈ 5.68 µM)
CCOC(=O)COc1ccc(S(=O)(=O)Nc2cc(C)cc(C)c2)cc1	4.03 µg/mL (≈ 11.1 µM)
O=C(COc1ccc(Cl)cc1Cl)Oc1cccc2cccnc12	5.88 µg/mL (≈ 16.9 µM)
O=c1[nH]c(/C=C/c2cccc3ccccc23)nc(O)c1[N+](=O)[O-]	2.8 µg/mL (≈ 9.05 µM)
Cc1ccc(-n2cc(-c3ccccc3)c3c(NCc4cccnc4)ncnc32)cc1	3.25 µg/mL (≈ 8.3 µM)
NC(=O)COc1ccc(C23CC4CC(CC(C4)C2)C3)cc1	19.7 µg/mL (≈ 69.2 µM)
Cc1cc(OCCOCCn2ccnc2)cc(C(C)C)c1	> 50 µg/mL (inactive)
CC1=CC(C)(C)N2C(=O)C(=O)c3cc(OC(=O)c4ccccc4C)cc1c32	8.23 µg/mL (≈ 22.8 µM)
Cc1ccc(S(=O)(=O)NC(=O)Oc2cccc3cccnc23)cc1	3.32 µg/mL (≈ 9.7 µM)
Cc1cc(C)cc(NC(=S)NC2CCCC2)c1	8.73 µg/mL (≈ 35.1 µM)
O=C(NCCc1c[nH]c2ccccc12)Nc1ccc(Cl)c(Cl)c1	3.69 µg/mL (≈ 10.6 µM)

Compound	IC50
Cc1cccc(OCCn2cnc3cc(C)c(C)cc32)c1	4.52 µg/mL (≈ 16.1 µM)
CCCCOc1ccc(C2c3c(oc4ccc(Br)cc4c3=O)C(=O)N2CCCN2CCOCC2)cc1 (stereo unspecified)	3.77 µg/mL (≈ 6.79 µM)
CC1=CC(C)(C)Nc2ccc(OC(=O)c3cccs3)cc21	3.02 µg/mL (≈ 10.1 µM)
Cc1ccc(C)c(N2C(=O)c3cccc4c([N+](=O)[O-])ccc(c34)C2=O)c1	0.76 µg/mL (≈ 2.19 µM)
Cc1ccc(-c2[nH]c(-c3cc([N+](=O)[O-])ccc3O)nc2-c2ccccc2)cc1	5.58 µg/mL (≈ 15 µM)
CCCn1c(NCc2ccc(Br)cc2)nc2ccccc21	4.3 µg/mL (≈ 12.5 µM)
CC1CCCCC1NC(=O)CSc1nc2ccccc2c(=O)[nH]1 (stereo unspecified)	18.4 µg/mL (≈ 55.5 µM)
CCOc1ccc(NC(=O)C(C)Oc2ccc(C)c(C)c2)cc1 (stereo unspecified)	4.04 µg/mL (≈ 12.9 µM)
N#Cc1cccc(NC(=O)Nc2cccc(Cl)c2)c1	6.26 µg/mL (≈ 23 µM)
O=[N+]([O-])/C=C/c1cccn1-c1ccc(Cl)cc1	9.66 µg/mL (≈ 38.8 µM)
Cc1nc(SCC(=O)N2CCC(C)CC2)c2c3c(sc2n1)CCC3	> 50 µg/mL (inactive)
Cc1ccc(Cl)cc1N1CCN(CC(O)COc2ccc3ccccc3c2)CC1 (stereo unspecified)	4.13 µg/mL (≈ 10.1 µM)
Cc1ccc(-c2nc(NC(=O)C34CC5CC(CC(C5)C3)C4)sc2C)cc1	> 50 µg/mL (inactive)
C#Cc1cccc(NC(=O)COc2ccc(Cl)cc2)c1	8.18 µg/mL (≈ 28.6 µM)
COc1ccc(-c2csc(Nc3ccc(C)cn3)n2)cc1	7.18 µg/mL (≈ 24.1 µM)
Cc1ccc(-c2nnc(SC3=CS(=O)(=O)c4ccccc43)o2)cc1	> 50 µg/mL (inactive)
O=C(CCN1C(=O)c2ccccc2C1=O)Oc1cccc2cccnc12	2.78 µg/mL (≈ 8.03 µM)
COC(=O)COc1ccc(CSCC(=O)Nc2ccc3ccccc3c2)cc1	0.44 µg/mL (≈ 1.11 µM)
CNCc1ccc(OCc2ccc(Cl)cc2Cl)cc1	4.85 µg/mL (≈ 16.4 µM)
Cn1c2c(c(=O)n(C)c1=O)C(C(F)(F)F)(C(F)(F)F)N=C(c1ccc(Cl)cc1)N2	46.1 µg/mL (≈ 105 µM)
c1ccc2nc3c(nc2c1)Nn1cnnc1S3	> 50 µg/mL (inactive)
O=C(CSc1ccc(Br)cc1)Nc1ccc([N+](=O)[O-])cc1	23.6 µg/mL (≈ 64.2 µM)
Cc1ccc(-c2csc(-c3ccc(O)cc3)n2)cc1	2.69 µg/mL (≈ 10.1 µM)
Cc1cc(OC(=O)c2ccco2)c2c3c(c(=O)oc2c1)CCCC3	23.4 µg/mL (≈ 72 µM)

Compound	IC50
COc1ccc(-c2csc(Nc3ncccc3C)n2)cc1	24.5 µg/mL (≈ 82.5 µM)
COC(=O)CSc1nnc(NC(=O)c2ccc(Cl)cc2)s1	0.16 µg/mL (≈ 0.465 µM)
C=CCCCCCCCCC(=O)Nc1ccccc1C	8.62 µg/mL (≈ 31.5 µM)
CCOC(=O)c1c(C)n(-c2ccc(C)cc2)c2ccc(O)c(CN(C)C)c12	10.9 µg/mL (≈ 29.6 µM)
O=C(CC12CC3CC(CC(C3)C1)C2)Nc1ccc(F)c(Cl)c1	3.02 µg/mL (≈ 9.38 µM)
CCN1C(=O)c2cccc3c([N+](=O)[O-])ccc(c23)C1=O	> 50 µg/mL (inactive)
CCOC(=O)c1c(NC(=O)c2c(F)c(F)c(F)c(F)c2F)sc(C(=O)OC)c1C	0.37 µg/mL (≈ 0.846 µM)
COc1ccc(OCCC(=O)Nc2nc(C3CCCCC3)cs2)cc1	25.5 µg/mL (≈ 70.8 µM)
Cc1nn(-c2ccccc2)c(C)c1N1C(=O)c2cccc3cc([N+](=O)[O-])cc(c23)C1=O	0.15 µg/mL (≈ 0.364 µM)
Clc1ccc(OCc2ccccc2Cl)c(CNC2CCCCC2)c1	2.51 µg/mL (≈ 6.89 µM)
CCCCOc1ccc(S(=O)(=O)Nc2ccc(I)cc2)cc1	2.84 µg/mL (≈ 6.58 µM)
CCC(=O)Nc1ccc2oc(-c3c(F)c(F)c(F)c(F)c3F)nc2c1	10.5 µg/mL (≈ 29.4 µM)
Cc1ccc(Cl)c(OCC(O)Cn2cnc3cc(C)c(C)cc32)c1 (stereo unspecified)	8.12 µg/mL (≈ 23.5 µM)
CC1CCN(c2nc(-c3cccnc3)nc3ccccc23)CC1	> 50 µg/mL (inactive)
CCN(CC)c1ccc(-n2nc3cc(C)c(N)cc3n2)c(C)c1	13.1 µg/mL (≈ 42.3 µM)
CCOC(=O)COc1ccc2c(=O)c(-c3ccccc3Cl)c(C)oc2c1C	0.98 µg/mL (≈ 2.53 µM)
CCOC(=O)COc1ccc(C(=O)NC2CCCCC2)cc1	1.09 µg/mL (≈ 3.57 µM)
CCOC(=O)c1sc(NC(=S)NC2CCN(Cc3ccccc3)CC2)c(C(=O)OCC)c1C	> 50 µg/mL (inactive)
Cn1nnnc1Sc1ccc([N+](=O)[O-])c2ncccc12	> 50 µg/mL (inactive)
Nc1nc2ccccc2n1CCOc1ccc(Cl)cc1Cl	3.85 µg/mL (≈ 11.9 µM)
O=C(CCN1CCC(c2ccccc2)C1)c1ccccc1 (stereo unspecified)	12.5 µg/mL (≈ 44.6 µM)
OC(COc1ccccc1Cl)CN1CCN(C(c2ccccc2)c2ccccc2)CC1 (stereo unspecified)	2.51 µg/mL (≈ 5.74 µM)
O=[N+]([O-])/C=C/c1ccccc1OCc1cccc(F)c1	6.26 µg/mL (≈ 22.9 µM)
CCN(CC)S(=O)(=O)c1ccc(Cl)c(C(=O)Oc2cccc3cccnc23)c1	2.45 µg/mL (≈ 5.85 µM)

Compound	IC50
CCCS(=O)(=O)c1nnnn1-c1cccc(OC)c1	0.65 µg/mL (≈ 2.3 µM)
CCc1nc2ccccc2n1CCCOc1ccccc1	0.5 µg/mL (≈ 1.78 µM)
Cc1ccc(NC(=O)c2cc3cc(Cl)cc(Cl)c3oc2=O)c(C)c1	1.1 µg/mL (≈ 3.04 µM)
Cc1cc(OCCn2ccnc2)cc(C(C)C)c1	7.45 µg/mL (≈ 30.5 µM)
Oc1cccc(Nc2nc(NCc3ccccc3)c3ccccc3n2)c1	0.98 µg/mL (≈ 2.86 µM)
Cc1c(C(=O)Nc2ccc(Cl)cc2)sc(N)c1C(=O)OC(C)C	7.88 µg/mL (≈ 22.3 µM)
CC(NCC(O)COc1ccccc1C(C)(C)C)c1ccccc1 (stereo unspecified)	2.55 µg/mL (≈ 7.79 µM)
CCOc1ccc(C(=O)NC(=S)Nc2ccc(CN3CCOCC3)cc2)cc1Cl	15.7 µg/mL (≈ 36.2 µM)
CCOC(=O)Cn1nnc(-c2ccc(OCc3ccccc3C)cc2)n1	< 0.1 µg/mL
Cn1c2c(c(=O)n(C)c1=O)C(C(F)(F)F)(C(F)(F)F)N=C(c1cccc([N+](=O)[O-])c1)N2	> 50 µg/mL (inactive)
C/C=C/c1ccc(OCCCOc2cccc3ccc(C)nc23)c(OC)c1	16.8 µg/mL (≈ 46.3 µM)
CCOc1cc(C(=O)O/N=C(\N)Cc2ccc(Cl)cc2Cl)cc(OCC)c1OCC	38 µg/mL (≈ 83.5 µM)
Cc1ccc(N2CC(C(=O)Nc3ncc([N+](=O)[O-])s3)CC2=O)cc1 (stereo unspecified)	28.3 µg/mL (≈ 81.6 µM)
CC(NC(=O)c1ccc(Br)cc1)c1ccc2c(c1)OCCO2 (stereo unspecified)	5.81 µg/mL (≈ 16 µM)
COC(=O)C(C)Sc1nnc(-c2ccc(Br)cc2)o1 (stereo unspecified)	0.99 µg/mL (≈ 2.88 µM)
O=C(Oc1ccc(F)cc1)c1sc2ccccc2c1Cl	3.07 µg/mL (≈ 10 µM)
CN1CCN(c2ccc(NC(=S)NC(=O)c3ccc(-c4cccc(Cl)c4)o3)cc2)CC1	0.38 µg/mL (≈ 0.835 µM)
CCCCn1c(NCc2ccc(N(CC)CC)cc2)nc2ccccc21	11.2 µg/mL (≈ 32 µM)
COC(=O)CSc1nc(-c2ccccc2)c(-c2ccccc2)o1	5.58 µg/mL (≈ 17.1 µM)
c1ccc2c(N3CCCCC3)nc(N3CCCC3)nc2c1	40.4 µg/mL (≈ 143 µM)
COc1cc(NC(=O)c2ccc(Br)o2)ccc1NC(=O)c1ccccc1Cl	6.8 µg/mL (≈ 15.1 µM)
OC(COCCC12CC3CC(CC(C3)C1)C2)CN1CCc2ccccc2C1 (stereo unspecified)	3.49 µg/mL (≈ 9.44 µM)
O=C(c1cccc([N+](=O)[O-])c1)N1N=C(c2ccc(Br)cc2)CC1(O)C(F)(F)F (stereo unspecified)	2.13 µg/mL (≈ 4.65 µM)
CCOc1ccc(Nc2nc(NCc3ccco3)c3ccccc3n2)cc1	1.36 µg/mL (≈ 3.77 µM)

Compound	IC50
CC(C)(C)c1ccc(OCC(=O)Nc2ccc3c(c2)OCCO3)c(Br)c1	4.25 µg/mL (≈ 10.1 µM)
FC(F)(F)c1ccccc1Nc1nc(-c2ccccn2)cs1	< 0.1 µg/mL
CCc1c(C)sc(NC(=S)NC2CCN(Cc3ccccc3)CC2)c1C(=O)OC	1.69 µg/mL (≈ 3.92 µM)
Cc1ccc(OCC(=O)c2ccc(F)cc2)cc1C	2.46 µg/mL (≈ 9.52 µM)
CC(Nc1nc(N2CCN(C(=O)c3ccc(Cl)cc3)CC2)nc2ccccc12)c1ccccc1 (stereo unspecified)	2.7 µg/mL (≈ 5.72 µM)
CCOC(=O)C1=C(C)N(c2ccc(Br)cc2)C(=O)C1	3.23 µg/mL (≈ 9.96 µM)
O=C(CC1(O)C(=O)N(CCc2ccccc2)c2ccc(Cl)cc21)c1cccnc1 (stereo unspecified)	6.05 µg/mL (≈ 14.9 µM)
COc1ccc(OC(C)C(=O)Nc2ccc(I)cc2)cc1 (stereo unspecified)	0.32 µg/mL (≈ 0.806 µM)
CC(C)(C)c1ccc(-c2nc(-c3ccncc3)no2)cc1	> 50 µg/mL (inactive)
Cc1cc(C)nc(/N=C(\N)Nc2cc(Cl)ccc2Oc2ccccc2)n1	2.21 µg/mL (≈ 6.01 µM)
CCOC(=O)C(C)Oc1ccc2c(=O)c(-c3ccc(Br)cc3)coc2c1 (stereo unspecified)	> 50 µg/mL (inactive)
CC(C)(C)c1ccc(C(=O)NC(=S)N2CCCC2)cc1	1.35 µg/mL (≈ 4.65 µM)
CC(C)(C)OC(=O)CS(=O)c1ccc(S(=O)(=O)C(F)(F)F)cc1[N+](=O)[O-] (stereo unspecified)	2.14 µg/mL (≈ 5.13 µM)
COc1ccccc1OCCCCN1CCN(C(c2ccccc2)c2ccccc2)CC1	8.02 µg/mL (≈ 18.6 µM)
CCC(C)c1ccc(OCC(=O)NC2C3CC4CC(C3)CC2C4)cc1 (stereo unspecified)	7.97 µg/mL (≈ 23.3 µM)
Cc1ccc(-c2csc(Nc3ccc(C(=O)O)c(O)c3)n2)cc1	1.46 µg/mL (≈ 4.47 µM)
O=C(NC1CCCCC1)c1cc2cc(Cl)cc(Cl)c2oc1=O	> 50 µg/mL (inactive)
CCCOc1ccc(Nc2cc(C)nc3ccc(Cl)cc23)cc1	0.74 µg/mL (≈ 2.26 µM)
O=C(Nc1cccc(Br)c1)c1ccc(-c2ccc(Cl)cc2)o1	1.39 µg/mL (≈ 3.69 µM)
CCOC(=O)c1c2c(n(C)c1CN(CC)CC)C(=O)C(=O)c1ccc(Br)cc1-2	0.17 µg/mL (≈ 0.38 µM)
